Data published in US20130324543A1, “REVERSAL OF HIGH BREAST CANCER RISK IN MAMMALS EXPOSED TO ESTROGENIC CHEMICALS IN UTERO BY ADULT EXPOSURE TO HDAC AND DNMT INHIBITORS” (Georgetown University, priority 2012, published 2013).
Entries after “also recorded” stand apart in the source; their conditions may differ.

Legend:
PcGTs = test: Microarray expression of PcGTs in mammary glands of in utero E2 exposed rats; type: in vivo; settings: PND 50
mammary tumors [1] = test: Acquired tamoxifen (TAM) resistance of mammary tumors in in utero exposed rats; type: in vivo; settings: 14-week follow-up, 7% in the control group
[2] = tested on: estrogen receptor alpha (ER-a); test: ER-a methylation and expression in mammary glands of in utero E2 exposed rats
Excerpt: A high in utero estrogenic environment increases the risk of developing breast cancer (FIG. 1). Increased risk is associated with greater epithelial cell proliferation and survival during mammary gland development, driven by persistent changes in the mammary transcriptome. How these transcriptional changes are initiated and maintained is unclear. […] We then determined whether estrogen receptor alpha (ER-a) is methylated in the E2 exposed rats. […] These mechanisms could include non-coding microRNAs (miRNAs) which are essential for early development and which inhibit expression of their target genes. Since several miRNAs are known to be suppressed by E2 in MCF-7 human breast cancer cells (Maillot et al. Cancer Res 2009), we determined whether persistent changes in miRNA expression may be seen in the adult mammary glands of rats exposed to E2 in utero. miRNAs were measured using applied Biosystems TaqManR Array Rodent MicroRNA.

mammary tumors [3] = test: Mammary tumorigenesis in F1 rats exposed to E2 in utero (FIG. 7); type: in vivo; settings: F1 generation exposed in utero vs controls
mammary gland [4] = test: Mammary gland morphology and TEB number after maternal E2 or high fat diet (FIG. 8, 11); type: in vivo, rats
Excerpt: exposures during pregnancy: […] Statistical analysis was done using ANOVA followed by between group comparisons using Tukey test. […] TEBs are the sites which give rise to malignant mammary tumors in rats; similar structures in the human breast-terminal ductal lobular units-give rise to 90% of human breast cancers.

[5] = tested on: MCF-7 breast cancer cells; settings: MCF-7 cells; cited from earlier work
[6] = Puberty onset (vaginal opening) of female mice exposed in utero; type: in vivo, C57BL/6 mice; settings: female offspring, in utero exposure
Procedure: To assess possible changes in sexual maturation due to in utero ECD exposures during embryogenesis, the day of puberty onset was recorded, as defined based on vaginal opening (VO) in female mice. The mice were examined once a day starting on PND 21. In sexually mature mice, the stage of estrus cycle was determined based on the cytology of their vaginal smear (sampled by pipetting 20 μl PBS in and out of vagina onto a slide) as judged under the microscope. Stage of estrus cycle was determined for each mouse before necropsy and sample collection.

mammary gland [7] = test: Mammary gland morphology of in utero exposed mice (whole mounts); type: in vivo, C57BL/6 mice; settings: female mice, PND 27
Procedure: One of the two #4 abdominal mammary glands was dissected and fixed in Carnoy's fixative and processed into whole mounts as previously described (8). The other #4 abdominal gland was snap frozen in liquid nitrogen and stored in −80° C. for future analysis. One of the two thoracic #2-3 mammary glands was fixed in neutral buffered 10% formalin, embedded in paraffin and processed for histology using routine methods, and the other was snap frozen in liquid nitrogen, also stored in −80° C. for future analysis. Uterus was dissected, and one horn with the ovary and vagina attached was fixed in 10% formalin, embedded in paraffin and processed for histology, and the other horn and one ovary were frozen in liquid nitrogen and stored in −80° C.
To assess possible changes in mammary gland morphology, whole amounts of the 4th abdominal glands obtained on PND 27 were processed as previously described (4, 72). The total number of terminal end buds (TEBs) was counted. Identification of TEBs was based on the guidelines established by Russo and Russo (64). The total area (in pixels) of epithelium of the peripubertal (PND 27) mammary glands was analyzed by using ImageJ software (available through NIH web site) on digitized pictures of mammary whole mounts with ducts manually intensified black against white background (shown as an insert in FIG. 16). Ductal elongation (mammary epithelial outgrowth) on PND 50 was measured as the growth in millimeters from the end of the lymph node to the end of the epithelial tree. All the analyses were done blindly using an Olympus dissecting microscope.

[8] = Immediate adverse effects of dietary exposure in adult non-pregnant littermates of dams; type: in vivo, mice; settings: last day of dietary exposure, data not shown
Procedure: For ethical reasons non-pregnant littermate females were used for blood collection instead of the dams, and the samples were taken on the last day of their dietary exposure. Blood was collected by heart puncture of anesthetized mice prior to euthanasia, and serum was separated by centrifugation (1000×g for 10 min) and stored frozen until hormone measurements.
In addition, possible immediate adverse effects of EE2, BPA and GEN exposure for adult mice were evaluated using the non-pregnant littermates of dams. Their body weights were recorded and the mammary gland morphology examined on the last day of their dietary exposure.

mammary tumors [9] = test: MPA/DMBA mammary tumorigenesis in mice exposed in utero to EE2, GEN or BPA (Example 5); type: in vivo, C57BL/6 mice
Excerpt: (§1) Additions to the basic diet were as follows: 1) cornstarch [control]; 2) EE2 0.1 ppm; 3) BPA 0.155 ppm; 4) GEN 500 ppm.

mammary tumors [10] = test: MPA/DMBA-induced mammary tumorigenesis in mice exposed in utero to EE2 or GEN, with or without adult HDAC+DNMT inhibitors
Procedure: Time pregnant C57BL/6 female mice were obtained from Harlan (Harlan-Teclad, USA) on gestation day 6, and were randomly assigned into three groups on the following day (gestation day 7). The basic diet formulation in the study was a semi-purified AIN93G (the American Institute of Nutrition) modified to replace soy oil for corn oil; all the diets of the three treatment groups were also purchased from Harlan. The diets were isocaloric, as ethinyl estradiol (EE2) or genistein (GEN) were added in the diet at the expense of comstarch. Additions to the basic diet were as follows: 1) EE2 0.1 ppm, and 2) GEN 500 ppm. EE2 was purchased from Sigma Chemicals (St. Louis, Mo., USA), and GEN was a gift from Dr. William Helferich (University of Illinois, Urbana, Ill., USA).
The pregnant dams were fed these diets until the day of the delivery of their pups (Post Natal Day 0, PND 0). Starting on PND 0, all mice were fed the control diet until the end of the study. Female mice born from the dams fed with the different above mentioned diets were used in the subsequent studies. For study outline, see FIG. 12. Animals were housed in a temperature- and humidity-controlled room under a 12-hour light-dark cycle. All animal procedures were approved by the Georgetown University Animal Care and Use Committee, and the experiments were performed following the National Institutes of Health guidelines for the proper and humane use of animals in biomedical research.
Mammary tumors were induced by administration of a subcutaneous injection of Medroxyprogesterone Acetate (MPA) to mice at 6 weeks of age, followed by administration of 1 mg 7,12-dimethylbenz(a)anthracene (DMBA) (Sigma, St. Louis, Mo.) weekly for four weeks (weeks 7, 8, 9, 10) (23). The carcinogen was dissolved in corn oil and administered by oral gavage in a volume of ca. 0.1 ml.
One week after the last dose of DMBA was administered, some of the mice were started on hydralazine (5 mg/kg/day) and valproic acid treatments (1.16 g/kg/day) treatments.
The two compounds were given in a drinking water, which was prepared fresh twice a week. The doses were chosen based on the literature (24-26). The number of animals in each group is as follows: Control n=18, Control given HDAC+DNMT inhibitors n=9, EE2 n=9, EE2 given HDAC+DNMT inhibitors n=6, GEN n=14, and GEN given HDAC+DNMT inhibitors n=8.
Mice were examined for mammary tumors by palpation once per week. Tumor growth was monitored for 16 weeks after the last dose of DMBA administration. During the follow-up, animals in which tumor burden approximated 10% of total body weight were euthanized, as required by the ethical guidelines of our institution. All surviving animals were sacrificed at that point for sample collection. The end-points for tumor data analysis were (i) latency to tumor appearance, (ii) the number of animals with tumors (tumor incidence), and (iii) the cumulative tumor area (tumor burden). The latter was achieved by adding the total tumor area per group each week and dividing it with the number of mice in the group.
(§2) Mammary tumor latency was compared with the final tumor burden in utero EE2 and GEN exposed mice to control mice, and in utero EE2 and GEN exposed mice to control mice exposed to HDAC+DNMT inhibitors separately; analysis was done using one-way ANOVA. Cumulative tumor burden during 16 weeks of tumor monitoring in the three groups, separately in those mice not given HDAC+DNMT inhibitors and those treated with the epigenetic drugs, was analysed using repeated measures one-way ANOVA. Log rank analysis was performed to compare mammary tumor incidence in the control and in utero EE2 and GEN exposed mice, again separately in those mice not given HDAC+DNMT inhibitors and those treated with the epigenetic drugs. Data for changes in DNMT1 expression among the groups in the mammary glands and tumors were assessed using two-way ANOVA, followed by Fisher LSD test

DNMT1 = DNMT1 mRNA expression (qRT-PCR) in mouse mammary glands and tumors; type: in vivo; settings: in utero exposure vs control mice
Excerpt: Total RNA was extracted using an RNeasy lipid mini kit (Qiagen, CA), according to manufacturer's instructions. One […] of total RNA per sample was used as a template for oligo-dT primed cDNA synthesis with a Supterscript reverse transcriptase, using Taqman Reverse Transcription kit (Applied Biosystems, CA). The cDNA samples served then as templates for quantitative real time PCR analysis with specific primers for the target gene using QuantiTect SYBR green PCR kit (Qiagen Inc., Valencia, Calif.) and an ABI Prism 7900 Sequence Detection System. Each sample was run in triplicate on a 384-well plate, and the qPCR run was repeated twice. The Ct values were averaged from the triplicates for each sample. To normalize the target gene expression the ratio to control RNA was calculated, i.e. the averages of the Ct triplicates from the Dnmt1 gene were divided by the average of the triplicates from the 18S gene. To determine the fold change of the target gene expression the results are presented as 2^ΔCt, where ΔCt=CT^target−Ct^18S.
The primer sequences for m18S rRNA were as previously published by Wang et al. (27).
as §2

[11] = Body weight and growth of in utero exposed pups; type: in vivo, C57BL/6 mice; settings: in utero exposure
Excerpt: as §1

For `C[C@]12CC[C@@H]3c4ccc(O)cc4CC[C@H]3[C@@H]1CC[C@@H]2O` [E2, estradiol], the “Fold down-regulated in E2 group” value (PcGTs; Actn1, alpha 1 actin) was −5.63 (p < 0.03) Fold, the “Fold down-regulated in E2 group” value (PcGTs; Ccl2, chemokine (C-C motif) ligand 2) was −1.81 (0.00) Fold and the “Fold down-regulated in E2 group” value (PcGTs; Ckm, muscle creatine kinase) was −7.68 (p < 0.01) Fold. The “Fold down-regulated in E2 group” value (PcGTs; H19/Pro2605, H19fetal liver mRNA (imprinted gene)) was −3.28 (p < 0.03) Fold, the “Fold up-regulated in E2 group” value (PcGTs; Hmgcs2, 3-hydroxy-3-methylglutaryl-Coenzyme A synthase 2) was 2.46 (p < 0.00) Fold and the “Fold up-regulated in E2 group” value (PcGTs; Lep, Leptin) was 1.59 (p < 0.02) Fold. The “Fold down-regulated in E2 group” value (PcGTs; Myh13, heavy polypeptide 13 myosin) was −6.08 (p < 0.01) Fold, the “Fold down-regulated in E2 group” value (PcGTs; Myl2, light polypeptide 2 myosin) was −10.19 (p < 0.02) Fold and the “Fold up-regulated in E2 group” value (PcGTs; Pdk4, puruvate dehydrogenase kinase isoenzyme 4) was 1.82 (p < 0.02) Fold. For the same compound, the “Fold down-regulated in E2 group” value (PcGTs; Pvnlb, parvalbumin) was −8.64 (p < 0.03) Fold, the “acquired resistance to TAM” value (mammary tumors [1]) was 50% and the “expression of ER-a” value [2] was “up-regulated”. The Mammary tumor incidence (mammary tumors [3]) was “higher”, the total tumor burden (mammary tumors [3]) was “also higher” and the tumor multiplicity (mammary tumors [3]) was “also higher”. For the same compound, the “number of TEBs” value (mammary gland [4]; 1st generation offspring, postnatal day 21) was “increased”, the “mammary gland morphology (parenchyma, TEBs, ductal elongation, size)” value (mammary gland [4]; 21-day-old rats exposed to 10 μg in utero vs control rats) was “contain a larger parenchyma and more TEBs, exhibit more advanced ductal elongation, and are larger” and the “expression of the same miRNAs” value [5] was “down-regulated”.
With `CC(C)(c1ccc(O)cc1)c1ccc(O)cc1` [BPA, Bisphenol A] the “puberty onset / vaginal opening” value [6] was “no effect”, the “total epithelial area of the glands” value (mammary gland [7]) was “significantly increased” and the “body weight or mammary epithelial development” value [8] was “No significant differences”. The “cumulative tumor burden compared to the group exposed to control diet in utero” value (mammary tumors [9]; C57BL/6, mouse, in vivo) was ~1.5 times and the “mammary tumorigenesis (onset of tumor growth and cumulative tumor burden)” value (mammary tumors [9]; mouse, in vivo) was “Enhanced mammary tumorigenesis”.
For `O=c1c(-c2ccc(O)cc2)coc2cc(O)cc(O)c12` [GEN, Genistein], the mammary tumorigenesis (mammary tumors [10]; in utero exposed offspring compared to the controls) was “increased mammary tumorigenesis”, the “Latency for first tumor to develop” value (mammary tumors [10]; in utero exposure (EE2 0.1 ppm or GEN 500 ppm in dam's diet) vs control mice) was “significantly shorter” and the Mammary tumor incidence (mammary tumors [10]; in utero exposure vs control mice) was “significantly higher”. The “Final tumor burden per mouse” value (mammary tumors [10]; in utero exposure vs controls) was “significantly higher”, the “DNMT1 expression in mammary tumors” value (DNMT1) was “significantly lower” and the “expression of DNMT1 in mammary glands” value (DNMT1) was “a similar increase; also recorded: an increase in DNMT1 expression; also recorded: persistent up-regulation”. For the same compound, the “birthweight, or postnatal weight development” value [11] was “did not alter”, the “puberty onset / vaginal opening” value [6] was “delayed vaginal opening” and the “puberty onset / vaginal opening” value ([6]; listed as genistein) was “delayed puberty onset”. The “total epithelial area of the glands” value (mammary gland [7]) was “nearly significantly increased”, the “body weight or mammary epithelial development” value [8] was “No significant differences” and the “cumulative tumor burden compared to the group exposed to control diet in utero” value (mammary tumors [9]; in utero exposure) was “approximately four”. For the same compound, the “mammary tumorigenesis (onset of tumor growth and cumulative tumor burden)” value (mammary tumors [9]; in utero exposure compared to controls) was “Enhanced mammary tumorigenesis”.
